This note sets out measurements from patent US10532068B2, “Dual molecular delivery of oligonucleotides and peptide containing conjugates” (Merck Sharp & Dohme Corp., priority 2013, dated 2020).

Strand notation (5' to 3'): a small letter for the sugar, then the base; units joined by * are phosphorothioate-linked, units joined directly phosphodiester-linked; [ ] holds rarer units or linkages, { } end groups; capitals alone tell only the bases. {NH2C6-invAb} = cap: inverted abasic residue carrying an aminohexyl phosphate (attachment handle); [invAb] = inverted abasic unit; m = 2'-O-methyl; f = 2'-fluoro

For one data set, the system named is CTNNB1. Put plainly: In vivo evaluation in mice: liver mRNA knockdown measurement (TaqMan qPCR). To be noted: for time course of mRNA KD in DMD format compared to 5-fold higher dose of siRNA-III alone: FIG. 4, sequential dosing, peptide 15 min after siRNA. Also noted: species or system CD-1 mice. In short, it runs like this: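 Female CD-1 mice got siRNA (SCE) and targeting peptide i.v. (tail vein) or s.c., co-formulated at t=0 or sequentially (peptide −2 hr to +24 hr vs siRNA). Liver punches taken at set times after siRNA dosing; TaqMan qPCR with PPIB housekeeping, ΔΔCt relative to PBS control.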
For orientation: Quantitative PCR measures a nucleic acid by following its amplification.

Data set [1] can be described thus: siRNA metabolic stability (FIG. 6 legend). To be noted: order siRNA-I>siRNA-V>siRNA-VI.
Another data set has as its target T1, RISC (Mus musculus, UniProt Q8CJG0).
T1 construct: from tissue; host or cells: liver of female CD-1 mice
Put plainly: Quantitation of siRNA bound to RISC in mouse liver (Ago2 immunoprecipitation, stem-loop qPCR). The class given is in vivo, CD-1 mice. To be noted: FIG. 5. How it is done: Female CD-1 mice (Charles River) were injected in accordance with either a sequential dosing paradigm or a co-dosing paradigm. In the sequential dosing paradigm, the targeted siRNA (SCE) is dosed at t=0 and the targeted peptide is separately dosed up to 2 hr before the SCE (−2 hr) or up to 24 hr after the SCE (+24 hr). In the co-dosing paradigm, the SCE and peptides are co-formulated and dosed together in the same formulation as a single injection at t=0. The mice were dosed either by intravenous (i.v.) or subcutaneous (s.c.) injection of SCE and peptide. For the i.v. doses, the compounds were injected into the tail vein of the mice. For the s.c. doses, the compounds were injected in the subcutaneous space on the back of the mouse between the shoulder blades. At the indicated harvest times (measured from t=0 when the siRNA was dosed, regardless of when the peptide was dosed), the animals were sacrificed and 3 mm liver punches were collected, preserved in RNAlater (Ambion), and stored at 4° C. Separate 5 mm liver punches were collected, placed in 96-well plates, frozen on dry ice, and stored at −80° C. until use. […]

T1 sequence (Q8CJG0 whole entry): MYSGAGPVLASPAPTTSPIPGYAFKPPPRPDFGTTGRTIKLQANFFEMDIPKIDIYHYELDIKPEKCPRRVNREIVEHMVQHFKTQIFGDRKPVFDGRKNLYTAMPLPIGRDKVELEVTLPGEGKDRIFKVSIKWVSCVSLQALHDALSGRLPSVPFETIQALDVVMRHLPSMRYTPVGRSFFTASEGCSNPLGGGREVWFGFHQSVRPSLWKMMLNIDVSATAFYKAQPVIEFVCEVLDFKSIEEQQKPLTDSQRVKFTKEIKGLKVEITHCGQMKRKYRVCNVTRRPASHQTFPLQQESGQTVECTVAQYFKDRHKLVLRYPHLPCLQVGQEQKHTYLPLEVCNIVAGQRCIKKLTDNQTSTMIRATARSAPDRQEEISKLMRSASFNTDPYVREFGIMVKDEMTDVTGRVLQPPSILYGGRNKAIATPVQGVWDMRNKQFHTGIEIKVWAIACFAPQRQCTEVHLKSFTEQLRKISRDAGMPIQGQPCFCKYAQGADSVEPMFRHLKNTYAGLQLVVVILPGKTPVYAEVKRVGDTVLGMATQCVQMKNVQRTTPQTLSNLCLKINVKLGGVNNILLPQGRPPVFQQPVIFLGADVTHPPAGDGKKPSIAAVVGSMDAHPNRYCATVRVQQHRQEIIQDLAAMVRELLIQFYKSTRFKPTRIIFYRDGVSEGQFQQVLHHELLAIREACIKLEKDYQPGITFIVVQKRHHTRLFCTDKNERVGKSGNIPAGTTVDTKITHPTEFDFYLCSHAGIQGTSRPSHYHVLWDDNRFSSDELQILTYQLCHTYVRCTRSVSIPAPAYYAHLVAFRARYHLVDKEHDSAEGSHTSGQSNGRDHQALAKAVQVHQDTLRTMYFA

In the case of “siRNA-I: CTNNB1 ds siRNA, passenger SEQ ID NO 1803, guide SEQ ID NO 1804 (sense {NH2C6-invAb}-mCmUfGmUmUfGfGfAmUmUfGfAmUmUmCfGfAfAfAmU*mU[invAb]; guide mU*fU*mU*fCmGfAmAfUmCfAmAfUmCfCmAfAmCfAmGmU*mU; targeting ligand attached via linker, site not given here)”, the “time course of mRNA KD in DMD format compared to 5-fold higher dose of siRNA-III alone” value with CTNNB1 was “faster and greater KD”. In the data set with CTNNB1 (FIG. 6, peptide within 2 hr before up to 24 hr after siRNA dose), the “effect of the timing of peptide dose on activity” value is on record as “does not significantly change the activity”. Besides, in data set [1], the “siRNA stability (metabolic stability)” value is given as “highly stable”.

For “siRNA-III: CTNNB1 ds siRNA, passenger SEQ ID NO 1803, guide SEQ ID NO 1806 (vinylPmoeT) (sense CUGUUGGAUUGAUUCGAAAUU; guide TUUCGAAUCAAUCCAACAGUU; vinylphosphonate MOE T; (1)..(1) aminohexyl phosphate inverted abasic cap; (1)..(2) 2′-O-methyl; (3)..(3) 2′-deoxy-2′-fluoro; (4)..(5) 2′-O-methyl; (6)..(8) 2′-deoxy-2′-fluoro; (9)..(10) 2′-O-methyl; (11)..(12) 2′-deoxy-2′-fluoro; (13)..(15) 2′-O-methyl; (16)..(19) 2′-deoxy-2′-fluoro; (20)..(21) 2′-O-methyl; (20)..(21) phosphorothioate internucleotide linkage; (21)..(21) inverted abasic cap; (1)..(1) terminal vinyl phosphate; (1)..(1) 2′-methoxyethoxy; (2)..(21) ribonucleotide unmodified or modified as described for this sequence; (2)..(2) 2′-deoxy-2′-fluoro; (3)..(3) 2′-O-methyl; (4)..(4) …)”, in the data set with RISC, the “time course of RISC loading” value was “faster RISC loading”. Moreover, the “time course of mRNA KD in DMD format compared to 5-fold higher dose of siRNA-III alone” value in the data set on CTNNB1 was “faster and greater KD”.

Take “siRNA-V: CTNNB1 ds siRNA, passenger SEQ ID NO 1803, guide SEQ ID NO 1808 (sense {NH2C6-invAb}-mCmUfGmUmUfGfGfAmUmUfGfAmUmUmCfGfAfAfAmU*mU[invAb]; guide mUfUmUfCmGfAmAfUmCfAmAfUmCfCmAfAmCfAmGmU*mU)”: the “activity (KD)” value in the data set on CTNNB1 (FIG. 6, peptide dose times within 2 hr (before or after) the siRNA) is on record as roughly 25%. Besides, in data set [1], the “siRNA stability (metabolic stability)” value was “moderately stable”.
